Columns and labels:
8505C cells = experiment: In vitro 125I uptake assay; type: cell-based, human; conditions: anaplastic thyroid cancer cells
Description: 8505C cells (1.25×10^5) were seeded and incubated in a 24-well plate for 24 hours, and then treated with TKI-0266 and further incubated for 24 hours. Thereafter, the medium was removed, and the cells were washed with bHBSS (Hank's balanced salt solution containing 0.5% BSA). The cells were incubated with 500 μl of bHBSS, 3.7 kBq carrier-free ^125I (Perkin-Elmer), and 10 μmol/L sodium iodide (specific activity of 740 MBq/mmol) at 37° C. for 30 minutes. Thereafter, the cells were washed twice with cold bHBSS and lysed by adding 500 μL of 2% SDS solution thereto. Radioactivity was measured using a Cobra II gamma-counter (Canberra Packard, Canada). The ^125I uptake values were normalized by comparing the amount of total protein determined by BCA protein assay kit.

[1] = tested on: anaplastic thyroid cancer xenograft (8505C-PNIS-PCMV); experiment: Tumor growth inhibition in xenograft mice (tumor size, R-luc BLI); type: in vivo, Balb/c nude mice; conditions: single agent administration
Description: Female Balb/c nude mice, 5.5-week old with an average weight of 18.9±0.37 g (mean±standard deviation [SD]), were purchased (Hamamatsu, Shizuoka, Japan). The mice were acclimated under specific pathogen-free conditions for one week before starting the experiment, and were maintained at a temperature of 20 to 25° C. and a relative humidity of 40 to 70%. To establish anaplastic thyroid cancer xenograft mouse models, 8505C-PNIS-PCMV s (5×10^6) were mixed with Matrigel (Corning) at a ratio of 1:1 and injected subcutaneously into the right flank region of each mouse.
In addition, in order to evaluate the effect of TKI-0266 administration on the treatment of thyroid cancer, mice for use in the experiment were divided into four groups (n=5): the vehicle group; the ^131I-administered group (injected intraperitoneally with 1 mCi Na-^131I on day 2 of the experiment; the TKI-0266-administered group (injected intraperitoneally with 50 mg/kg of TKI-0266 for 5 days); and the group co-administered with ^131I and TKI-0266 (injected intraperitoneally with 50 mg/kg of TKI-0266 for 5 days, and injected intravenously with 1 mCi Na-^131I on day 2; n=5). To measure the degree of tumor growth, h-coelenterazine (15 μg/ml) was administered to the mice by intravenous injection, and then the R-luc activity was monitored by BLI every 5 days.

SMILES | iodine uptake on treatment with NIS inhibitor (8505C cells) | tumor size on days 6 and 11 [1]
[K+].[O-][Cl+3]([O-])([O-])[O-] [KCIO4, reference compound] | completely blocked | –
[131I-].[Na+] [^131I, Na-^131I, reference compound] | – | continuous increase

Source: patent publication US12011447B2, “Pharmaceutical composition for treating thyroid cancer comprising tyrosine kinase activity inhibitor as active ingredient” (Kyungpook National University Industry-Academic Cooperation …, priority 2017, dated 2024)
